Measured values from ChEMBL document CHEMBL5726904, “Compounds, compositions, and methods” (2018).

Biological target: Leucine-rich repeat serine/threonine-protein kinase 2 (Homo sapiens, UniProt Q5S007, G2019S)
Assay: Biochemical Assay: Materials: LRRK2 G2019S enzyme Substrate (LRRKtide) ATP TR-FRET dilution buffer pLRRKtide antibody 384-well assay plate DMSOEnzyme Reaction Conditions 50 mM Tris pH 7.5, 10 mM MgCl2, 1 mM EGTA, 0.01% Brij-35, 2 mM DTT 5 nM LRRK2 134 μM ATP 60 minute reaction time 23° C. reaction temperature 10 μL total reaction volumeDetection Reaction Conditions 1× TR-FRET dilution buffer 10 mM EDTA 2 nM antibody 23° C. reaction temperature 10 μL total reaction volumeCompounds were prepared by initially diluting to 1 mM with DMSO. 35 μL of reference compound solution, 35 μL of test compound solution, and 35 μL HPE were successively added to the source plate (384-well assay plate, Labcyte). The plates were centrifuged at 2500 rpm for 1 minute and sealed in foil. POD was used to perform a 3.162 fold serial dilution and 100 nL of reference compound solution, test compound solution, HPE and ZPE were transferred to assay plates. The assay plate was centrifuged at 2500 rpm for 1 minute, and sealed with foil.To perform the enzyme reaction, 5 μL of LRRKtide substrate and kinase mixture in assay buffer was added to all wells of the assay plate. The plate was centrifuged to concentrate the mixture at the bottom of the wells. The assay plate was incubated at 23° C. for 20 minutes. […]

Leucine-rich repeat serine/threonine-protein kinase 2, sequence (Q5S007 whole entry G2019S): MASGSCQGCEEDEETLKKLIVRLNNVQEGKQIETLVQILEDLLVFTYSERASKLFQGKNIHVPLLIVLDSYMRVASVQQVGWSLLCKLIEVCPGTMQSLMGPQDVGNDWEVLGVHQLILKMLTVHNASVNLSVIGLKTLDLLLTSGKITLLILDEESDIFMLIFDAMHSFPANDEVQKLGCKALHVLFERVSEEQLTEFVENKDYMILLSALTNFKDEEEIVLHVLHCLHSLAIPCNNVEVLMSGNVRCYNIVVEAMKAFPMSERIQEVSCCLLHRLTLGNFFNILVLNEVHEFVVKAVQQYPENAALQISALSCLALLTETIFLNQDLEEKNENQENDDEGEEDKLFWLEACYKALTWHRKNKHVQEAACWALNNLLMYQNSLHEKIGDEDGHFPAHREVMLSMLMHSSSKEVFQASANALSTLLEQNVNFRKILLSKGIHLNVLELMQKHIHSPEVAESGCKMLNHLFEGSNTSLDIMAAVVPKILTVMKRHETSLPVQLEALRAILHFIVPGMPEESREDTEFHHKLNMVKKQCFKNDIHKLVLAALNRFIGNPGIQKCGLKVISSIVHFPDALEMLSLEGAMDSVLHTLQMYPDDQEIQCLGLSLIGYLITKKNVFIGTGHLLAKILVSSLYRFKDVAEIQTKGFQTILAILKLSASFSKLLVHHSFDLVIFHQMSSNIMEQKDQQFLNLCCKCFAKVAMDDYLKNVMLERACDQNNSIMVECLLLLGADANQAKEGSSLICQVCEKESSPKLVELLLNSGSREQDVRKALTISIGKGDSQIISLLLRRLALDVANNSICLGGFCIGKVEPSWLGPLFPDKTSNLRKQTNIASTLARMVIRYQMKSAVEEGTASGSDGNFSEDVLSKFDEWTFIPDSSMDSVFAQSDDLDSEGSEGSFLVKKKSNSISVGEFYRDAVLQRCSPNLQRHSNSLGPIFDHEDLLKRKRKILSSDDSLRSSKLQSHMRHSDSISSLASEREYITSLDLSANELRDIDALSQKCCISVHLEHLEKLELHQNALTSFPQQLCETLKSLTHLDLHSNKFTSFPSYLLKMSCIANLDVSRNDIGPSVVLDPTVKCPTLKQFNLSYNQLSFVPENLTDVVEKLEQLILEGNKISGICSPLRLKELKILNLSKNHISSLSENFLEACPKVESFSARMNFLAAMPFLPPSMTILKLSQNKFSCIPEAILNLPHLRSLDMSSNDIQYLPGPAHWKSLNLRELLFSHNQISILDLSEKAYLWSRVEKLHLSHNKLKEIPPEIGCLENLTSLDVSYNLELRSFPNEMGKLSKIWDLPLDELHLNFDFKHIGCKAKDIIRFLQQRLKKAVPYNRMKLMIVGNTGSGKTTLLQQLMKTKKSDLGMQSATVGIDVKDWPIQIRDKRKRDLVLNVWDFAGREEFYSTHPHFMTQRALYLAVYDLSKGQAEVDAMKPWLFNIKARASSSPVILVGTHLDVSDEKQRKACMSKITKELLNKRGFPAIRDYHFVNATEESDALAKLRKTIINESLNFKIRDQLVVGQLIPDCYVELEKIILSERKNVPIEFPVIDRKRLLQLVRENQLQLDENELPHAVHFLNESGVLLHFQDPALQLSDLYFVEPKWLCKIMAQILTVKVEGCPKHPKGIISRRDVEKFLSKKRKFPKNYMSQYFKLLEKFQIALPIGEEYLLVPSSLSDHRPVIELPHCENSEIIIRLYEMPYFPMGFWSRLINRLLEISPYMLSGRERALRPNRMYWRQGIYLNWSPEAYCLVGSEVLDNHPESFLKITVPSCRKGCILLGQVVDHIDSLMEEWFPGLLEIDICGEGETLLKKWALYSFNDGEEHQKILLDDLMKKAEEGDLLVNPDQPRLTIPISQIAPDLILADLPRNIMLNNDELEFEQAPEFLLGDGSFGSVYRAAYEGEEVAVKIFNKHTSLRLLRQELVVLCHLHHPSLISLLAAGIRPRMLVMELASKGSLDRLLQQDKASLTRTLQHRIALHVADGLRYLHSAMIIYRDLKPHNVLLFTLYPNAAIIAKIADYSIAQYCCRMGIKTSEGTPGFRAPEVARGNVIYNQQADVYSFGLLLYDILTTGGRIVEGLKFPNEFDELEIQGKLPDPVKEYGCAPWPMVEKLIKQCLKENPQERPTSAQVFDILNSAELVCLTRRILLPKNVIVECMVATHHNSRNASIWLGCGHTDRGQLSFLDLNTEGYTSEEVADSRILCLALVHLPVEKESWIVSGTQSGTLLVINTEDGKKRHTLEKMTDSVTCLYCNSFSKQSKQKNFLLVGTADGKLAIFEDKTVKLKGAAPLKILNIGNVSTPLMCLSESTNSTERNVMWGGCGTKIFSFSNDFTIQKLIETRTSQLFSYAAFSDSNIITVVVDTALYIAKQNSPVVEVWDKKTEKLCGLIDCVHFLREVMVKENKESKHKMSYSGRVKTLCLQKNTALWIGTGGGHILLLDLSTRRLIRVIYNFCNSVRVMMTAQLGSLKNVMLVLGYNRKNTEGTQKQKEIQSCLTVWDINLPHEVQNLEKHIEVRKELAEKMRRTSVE

IC50 | SMILES
< 30 nM | COc1nc(Nc2cn(C(C)(C)C#N)nc2C)ncc1Br
< 30 nM | COc1nc(Nc2cn(C3C[C@@H]3C#N)nc2C2CC2)ncc1Br (single isomer, unassigned)
